According to patent US6828342B2, “Nitric esters and nitrate salts of specific drugs” (priority 1999, dated 2004):
Structures can show the parent of a compound that is named as a salt.

How the values were obtained:
[1] = tested on: phenol red in the tracheal secretion; experiment: Mucolitic activity in mice: phenol red in the tracheal secretion; format: in vivo
Procedure: Mucolitic Activity in Mice of Ambroxol Nitrate and Ambroxol Hydrochloride
Mucolitic activity in male mice was evaluated according to the Method of Engler and Zselenyi, J. Pharm. Methods 11, 151, 1984. By this method it is determined the quantity of phenol red in the tracheal secretion. The animals were previously administered i.p. at a dose of 500 mg/Kg with the dye dissolved in physiologic solution. 3 groups of mice (weight 18±2 g), of 10 animal each, were treated i.p. with the dye. One group was the control group. Each of the two treated groups received, ten minutes before the above injection, an i.p. injection of 264 micromoles/Kg of Ambroxol nitrate or Ambroxol hydrochloride, respectively. 30 minutes after the phenol red injection, the animals were sacrificed. The trachea was freed from the sorrounding tissues, dissected and washed for 30 minutes in 3 ml of physiologic solution. 0.1 ml of 1 M sodium hydroxyde were then added to the physiologic solution. The washings were centrifuged for 15 minutes at 3000 rpm. A spectrophotometric assay was performed on the supernatant in order to determine the concentration of phenol red in the physiologic solution. Mucolitic activity was determined as % variation of absorbance of the sample in the confront of that of the control group, assumed to be 100%.

[2] = tested on: histamine-induced bronchoconstriction; experiment: Antihistaminic activity: experimental bronchoconstriction by histamine in the guinea pig; settings: result in words
[3] = tested on: cough strokes caused by citric acid aerosol; experiment: Anti-tussive activity: cough strokes caused by citric acid aerosol in the guinea pig; format: in vivo; settings: 110 micromoles/Kg i.p.; for cough strokes (%): citric acid 7.5% aerosol, 30 minutes before aerosol, cough strokes over 10 minutes referred to control = 100%; for Antitussive potency compared with the corresponding hydrochlorides: result in words
Procedure: Anti-tussive Activity in the Guinea Pig of Dextromethorphan Hydrochloride, Dextromethorphan Nitrate, Dextrorphan Hydrochloride and Dextrorphan Nitrate
Guinea pigs (weight: 430+20) were treated as described by Braga et Al. Arzneim. Forsch./Drug Res. 43, 550, 1993.
In this pharmacological experiment 5 groups of 8 animals each were formed. One group was not treated and was the control group.
Each animal was placed in a cilindrical glass container having one tubing through each of the two circular flat surfaces. Said tubing were, respectively, for the aerosol inlet and outlet. The outlet tubing is connected to a polygraphic system.
The aerosol was formed from a solution 7.5% by weight of citric acid in water.
The air variation inside the glass container was registered before and after a cough stroke caused by the aerosol. One hour later Dextromethorphan hydrochloride, Dextromethorphan nitrate, Dextrorphan hydrochloride and dextrorphan nitrate were i.p. administered in a physiologic solution at a dose of 110 micromoles/Kg. 30 minutes after the injection the animals were treated with the aerosol. It was then registered the number of cough strokes for a time of 10 minutes. In the following Table III are reported the average response obtained from each treated group, referred to that of the control group, made 100%.

[4] = tested on: bronchoconstrictive response induced by capsaicin; experiment: Experimental bronchoconstriction induced by capsaicin in the guinea pig (tidal air variation, Konzett apparatus); format: in vivo; settings: 0.3 nmoles/min i.v., result in words
Procedure: Each groups consisted of eight animals. […] For a total 15 minutes, starting from 5 minutes before capsaicin injection to 10 minutes after) Salbutamol (0.3 nmoles/min), or the corresponding nitrate salt (0.3 nmoles/min) or only the carrier were administered by intravenous infusion were administered to each group. […] The heart frequency was determined by an electrocardiographic device, according to the usual methods.

heart frequency = experiment: Heart frequency (tachycardia) by electrocardiographic device in the capsaicin bronchoconstriction study; format: in vivo; settings: guinea pig; 0.3 nmoles/min i.v. infusion; heart frequency as percent with respect to the control (carrier 188 ±7 beats per minute = 100); Nitrate Salt
Procedure: Each groups consisted of eight animals. […] For a total 15 minutes, starting from 5 minutes before capsaicin injection to 10 minutes after) Salbutamol (0.3 nmoles/min), or the corresponding nitrate salt (0.3 nmoles/min) or only the carrier were administered by intravenous infusion were administered to each group.
The heart frequency was determined by an electrocardiographic device, according to the usual methods.

## Nc1c(Br)cc(Br)cc1CNC1CCC(O)CC1 (centres unmarked) [Ambroxol hydrochloride, reference compound]
[1]; male mice, 264 micromoles/Kg i.p. ten minutes before phenol red 500 mg/Kg i.p., % variation of absorbance versus control group = 100%, hydrochloride
  Mucolitic activity (%): 30%

## Nc1c(Br)cc(Br)cc1CNC1CCC(O)CC1 (centres unmarked) [Ambroxol nitrate, Ambroxol Nitrate Salt]
[1]; mice, 264 micromoles/Kg i.p., result in words
  Mucolitic activity compared with the corresponding hydrochloride: higher than that of the corresponding hydrochloride

## O=C(O)COCCN1CCN(C(c2ccccc2)c2ccc(Cl)cc2)CC1 (centres unmarked) [Cetirizine nitrate, Cetirizine Nitrate Salt]
[2]
  Antihistamine activity compared with Cetirizine hydrochloride: improved antihistamine activity

## COc1ccc2c(c1)[C@@]13CCCC[C@H]1[C@@H](C2)N(C)CC3 [Dextromethorphan hydrochloride, reference compound]
[3]; hydrochloride
  cough strokes (%): 30%

## COc1ccc2c(c1)[C@@]13CCCC[C@H]1[C@@H](C2)N(C)CC3 [Dextromethorphan nitrate, Dextromethorphan Nitrate Salt]
[3]
  Antitussive potency compared with the corresponding hydrochlorides: more potent antitussive agents than the corresponding hydrochlorides
[3]; Nitrate Salt
  cough strokes (%): 0%

## CN1CC[C@]23CCCC[C@H]2[C@H]1Cc1ccc(O)cc13 [Dextrorphan hydrochloride, reference compound]
[3]; hydrochloride
  cough strokes (%): 40%

## CN1CC[C@]23CCCC[C@H]2[C@H]1Cc1ccc(O)cc13 [Dextrorphan nitrate, Dextrorphan Nitrate Salt]
[3]
  Antitussive potency compared with the corresponding hydrochlorides: more potent antitussive agents than the corresponding hydrochlorides
[3]; Nitrate Salt
  cough strokes (%): 0%

## CC(C)(C)NCC(O)c1ccc(O)c(CO)c1 (centres unmarked) [Salbutamol · HNO3, Salbutamol Nitrate Salt]
[4]
  Inhibition of the bronchoconstrictive response induced by capsaicin, compared with Salbutamol: as effective as Salbutamol
Heart frequency
  Tachycardia (%): 97%
